Measured values: US7371563B2, “Peelable and resealable devices for biochemical assays” (Surface Logix, Inc., priority 2000, dated 2008)

Target: T1, β1,4-galactosyltransferase (Bos taurus, UniProt P08037)
T1 sequence (P08037 1-402): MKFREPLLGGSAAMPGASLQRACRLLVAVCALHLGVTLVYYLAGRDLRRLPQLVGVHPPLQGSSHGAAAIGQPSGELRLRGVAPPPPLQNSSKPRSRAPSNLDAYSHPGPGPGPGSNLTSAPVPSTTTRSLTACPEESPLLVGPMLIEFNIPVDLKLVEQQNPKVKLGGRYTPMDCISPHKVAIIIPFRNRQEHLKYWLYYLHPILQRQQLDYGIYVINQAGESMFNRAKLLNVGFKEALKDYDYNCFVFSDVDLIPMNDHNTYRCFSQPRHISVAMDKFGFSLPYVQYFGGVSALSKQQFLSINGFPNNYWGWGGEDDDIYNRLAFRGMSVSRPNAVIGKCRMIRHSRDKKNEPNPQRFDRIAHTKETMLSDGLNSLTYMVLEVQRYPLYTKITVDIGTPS
Experiment: Glycosyltransferase assay on immobilized carbohydrates
Assay type: biochemical, bovine
Conditions: immobilized carbohydrate; UDP [^14C] galactose, 3.5 μM; phosphorimaging
Description: FIG. 41 represents the results of a glycosyltransferase assay. The surface comprises 3 different carbohydrate substrates defined by columns and a control column (no substrate). Each row was reacted with a different concentration of β1,4-galactosyltransferase and a constant concentration of sugar donor (UDP [^14C] galactose, 3.5 μM). The reaction was detected by phosphorimaging.
Referring to FIG. 41, in the glycosyltransferase assay, various carbohydrates were immobilized using a thiol chemical tag to bond to a monolayer thiolate bearing a maleimide group. A glycosyltransferase enzyme was added to the immobilized carbohydrates. The ability of the enzyme to add radioactively labeled sugars to the immobilized carbohydrates was measured. In the glycosyltransferase assay the enzyme that was employed is bovine recombinant β 1,4-galactosyltransferase. Preferably, the enzyme is at a concentration of about 10 pM to about 100 uM. More preferably, the enzyme is at a concentration of about 100 pM to about 1 uM. […]
Detection of glycosylation of the immobilized carbohydrate substrates on the base plate was performed radiometrically. The incorporation of ^14C was quantified by exposing a storage phosphor screen to the plate and then imaging it on a Variable Mode Imager (Typhoon 8600; Molecular Dynamics, Sunnyvale, Calif.). […]

SMILES: CC(=O)N[C@H]1C(O)O[C@H](CO)[C@@H](O)[C@@H]1O (stereo partly shown) [GlcNAc]
- substrate for β1,4-galactosyltransferase: only the immobilized GlcNAc was a substrate
